The text below walks through data of ChEMBL document CHEMBL1201862, “PubChem BioAssay data set” (2004).

Structures are written as SMILES.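 These data come from cells grown in 96-well plates and exposed to compound for 48 hours at five concentrations. GI50: concentration for 50% inhibition of growth.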 Active and inactive are the calls of the source. No stated cut-off is given here; in the data, active = GI50 up to about 1.1 µM and inactive = higher.

Among the test systems are ACHN; DMS-114; DU-145; HCC 2998; HCT-116; LOX IMVI; MDA-N; MOLT-4; Malme-3M; NCI-H460; RPMI-8226; SF-268; SF-295; SF-539; SK-OV-3; SN12C; SR; SW-620; TK-10; UACC-62.
Common to all, as to assay: growth of human tumour cells (NCI), 48 h

Consider `Cc1cc2nc3ccc(N(C)C)cc3[s+]c2cc1N` [TOLONIUM CHLORIDE], for which the GI50 was 8.71 µM (inactive) in the test on ACHN; 0.867 µM (active) in the test on DMS-114; 15.7 µM (inactive) with DU-145; 3.7 µM (inactive) in the test with HCC 2998; 1.75 µM (inactive) in the test on HCT-116; 1.96 µM (inactive) in the test on LOX IMVI. Moreover, the GI50 was 1.09 µM (active) with MDA-N; 2.69 µM (inactive) with MOLT-4; 1.93 µM (inactive) in the test with Malme-3M; 2.82 µM (inactive) in the test with NCI-H460; 1.48 µM (inactive) in the test with RPMI-8226; 5.38 µM (inactive) in the test on SF-268. In addition, the GI50 in the test with SF-295 is 3.62 µM (inactive); with SF-539, 2.63 µM (inactive); with SK-OV-3 it was 9.71 µM (inactive); in the test with SN12C, 3.1 µM (inactive); with SR it was 3.67 µM (inactive); with SW-620, 2.86 µM (inactive). The GI50 was 19.2 µM (inactive) with TK-10 and 1.89 µM (inactive) in the test on UACC-62.
Consider `COc1ccc2nc(C)cc(NCCCCCCCCCNc3cc(C)nc4ccc(OC)cc34)c2c1`, for which the GI50 is 8.87 µM (inactive) in the test with ACHN; 1.15 µM (inactive) in the test with DMS-114; 6.07 µM (inactive) in the test on DU-145; 1.4 µM (inactive) with HCC 2998; 0.279 µM (active) in the test on HCT-116; 0.714 µM (active) with LOX IMVI. In addition, the GI50 in the test with MDA-N was 1.46 µM (inactive); with MOLT-4, 1.29 µM (inactive); in the test on Malme-3M, 9.27 µM (inactive); in the test on NCI-H460, 0.396 µM (active); with RPMI-8226, 1.11 µM (active); in the test on SF-268, 1.93 µM (inactive). Moreover, the GI50 in the test on SF-295 was 1.11 µM (active); in the test on SF-539, 1.27 µM (inactive); in the test on SK-OV-3 it was 8.79 µM (inactive); in the test on SN12C, 3.6 µM (inactive); with SR, 0.486 µM (active); with SW-620 it was 0.957 µM (active). For the same molecule, the results for the GI50 in the test on TK-10 and in the test with UACC-62 were 4.66 µM (inactive) and 2.83 µM (inactive), respectively.
With `O=C1c2ccccc2C2(O)Oc3cccc(O)c3C12O` (stereo not drawn), the GI50 in the test on ACHN, in the test with DMS-114, with HCC 2998, in the test with HCT-116, in the test with LOX IMVI and in the test on MOLT-4 was > 100 µM (inactive) each time. For the same molecule, the GI50 in the test on Malme-3M, in the test on NCI-H460, with RPMI-8226, in the test with SF-268, in the test with SF-295 and in the test with SF-539 was > 100 µM (inactive) in each case. Moreover, the GI50 in the test on SK-OV-3 was > 100 µM (inactive); with SN12C it was > 100 µM (inactive); in the test with SR it was > 100 µM (inactive); in the test with SW-620, > 100 µM (inactive); in the test with TK-10, > 100 µM (inactive); in the test on UACC-62 it was 62.5 µM (inactive).
As to `O=C(CSc1c2ccccc2nc2ccccc12)Nc1ccccc1-c1ccccc1NC(=O)CSc1c2ccccc2nc2ccccc12`, the GI50 was 31.5 µM (inactive) in the test on ACHN; 15 µM (inactive) with DMS-114; 17.4 µM (inactive) with HCC 2998; 27.2 µM (inactive) with HCT-116; 17.2 µM (inactive) with LOX IMVI; 5.27 µM (inactive) in the test with MOLT-4. Moreover, the GI50 was 30.8 µM (inactive) with Malme-3M; 29 µM (inactive) in the test with NCI-H460; 4.46 µM (inactive) with RPMI-8226; 26.8 µM (inactive) with SF-268; 25.6 µM (inactive) in the test with SF-295; 14.4 µM (inactive) with SF-539. Further, the GI50 is 80.4 µM (inactive) with SK-OV-3; 28 µM (inactive) with SN12C; 11.1 µM (inactive) in the test with SR; 28.6 µM (inactive) with SW-620; 60.4 µM (inactive) in the test on TK-10; 18 µM (inactive) in the test with UACC-62.
Regarding `Fc1cccc(C2SCc3nc4ccccc4n32)c1F` (stereo not drawn), the GI50 was 48.5 µM (inactive) in the test on ACHN; 23.8 µM (inactive) with DMS-114; > 100 µM (inactive) in the test on HCC 2998; 48.5 µM (inactive) with HCT-116; 84.3 µM (inactive) in the test on LOX IMVI; 21.1 µM (inactive) in the test on MOLT-4. Also, the GI50 in the test on Malme-3M was 38 µM (inactive); in the test on NCI-H460, 51.5 µM (inactive); with RPMI-8226, 31.1 µM (inactive); in the test on SF-268, 98.4 µM (inactive); in the test on SF-295 it was 30.8 µM (inactive); in the test with SF-539 it was > 100 µM (inactive). Besides, the GI50 was > 100 µM (inactive) with SK-OV-3; 89.7 µM (inactive) in the test on SN12C; 28.4 µM (inactive) with SR; > 100 µM (inactive) in the test on SW-620; 42 µM (inactive) in the test on TK-10; 63.5 µM (inactive) in the test on UACC-62.
In the case of `O=C(Cc1ccccc1)Oc1ccc2c(-c3ccccc3)c(C(=O)Nc3ccc(Cl)cc3)c(=O)oc2c1`, the GI50 with ACHN, in the test with DMS-114, in the test with HCC 2998, in the test on HCT-116, with LOX IMVI and in the test with MOLT-4 was > 100 µM (inactive) in each case. For the same molecule, the GI50 in the test on Malme-3M, in the test with NCI-H460, in the test with RPMI-8226, in the test with SF-268, with SF-295 and in the test on SF-539 was > 100 µM (inactive) in each case. Further, the GI50 in the test on SK-OV-3, in the test with SN12C, in the test on SR, in the test on SW-620, with TK-10 and in the test on UACC-62 was > 100 µM (inactive) in each case.
Consider `Cc1cccc2c(=O)c([Se]c3coc4c(C)cccc4c3=O)coc12`, for which the GI50 is 18.4 µM (inactive) in the test on ACHN; 17.7 µM (inactive) in the test with DMS-114; 21.2 µM (inactive) in the test on HCC 2998; 5.68 µM (inactive) in the test on HCT-116; 20 µM (inactive) with LOX IMVI; 38.6 µM (inactive) in the test on MOLT-4. The GI50 was 19.1 µM (inactive) in the test with Malme-3M; 5.73 µM (inactive) with NCI-H460; 29.2 µM (inactive) with RPMI-8226; 19.6 µM (inactive) in the test on SF-268; 3.56 µM (inactive) in the test on SF-295; 16.3 µM (inactive) in the test on SF-539. Besides, the GI50 with SK-OV-3 was 17.6 µM (inactive); in the test on SN12C, 18.5 µM (inactive); in the test with SR, 14.8 µM (inactive); with SW-620, 20.4 µM (inactive); in the test with TK-10, 29.9 µM (inactive); in the test on UACC-62, 17.8 µM (inactive).
Take `Cc1ccccc1Nc1nc2c(s1)C(=O)c1ccccc1C2=O`: the GI50 is 4.95 µM (inactive) with ACHN; 2 µM (inactive) in the test with DMS-114; 6.67 µM (inactive) with DU-145; 17.7 µM (inactive) in the test with HCC 2998; 2.36 µM (inactive) in the test on HCT-116; 2.26 µM (inactive) in the test on LOX IMVI. Further, the GI50 in the test with MDA-N is 1.95 µM (inactive); in the test on MOLT-4, 2.43 µM (inactive); in the test with Malme-3M it was 15 µM (inactive); with NCI-H460 it was 8.67 µM (inactive); in the test on RPMI-8226 it was 2.93 µM (inactive); in the test with SF-268, 4.33 µM (inactive). The GI50 in the test on SF-295 was 18 µM (inactive); with SF-539, 5.73 µM (inactive); with SK-OV-3, 21.8 µM (inactive); in the test on SN12C, 3.3 µM (inactive); in the test on SR it was 3.27 µM (inactive); in the test on SW-620, 2.49 µM (inactive). Moreover, the figures for the GI50 in the test with TK-10 and in the test with UACC-62 were 22.7 µM (inactive) and 4.55 µM (inactive), respectively.
Turning to `COc1ccc2oc(C(=O)O)c3c2c1CCC3CCC(=O)O` (stereo not drawn), the GI50 with ACHN, in the test on DMS-114, in the test on HCC 2998, in the test with HCT-116, in the test on LOX IMVI and in the test with MOLT-4 was > 100 µM (inactive) in each case. Besides, the GI50 in the test on Malme-3M, in the test with NCI-H460, with RPMI-8226, in the test with SF-268, in the test with SF-295 and in the test with SF-539 was > 100 µM (inactive) each time. Besides, the GI50 in the test on SK-OV-3, with SN12C, in the test with SR, with SW-620, with TK-10 and in the test with UACC-62 was > 100 µM (inactive) each time.
